In this data set the test system is CCRIS mutagenicity, Ames/micronucleus/aberration tests. In words: CCRIS mutagenicity studies.
The mark [1] stands for this setting: Test System: AMES SALMONELLA TYPHIMURIUM, Strain/Indicator: TA98, Metabolic Activation: NONE, Method: STANDARD PLATE.
Where [2] appears, read: Test System: AMES SALMONELLA TYPHIMURIUM, Strain/Indicator: TA100, Metabolic Activation: NONE, Method: STANDARD PLATE.
The mark [3] stands for this setting: Test System: AMES SALMONELLA TYPHIMURIUM, Strain/Indicator: TA98, Metabolic Activation: NONE, Method: PREINCUBATION
Where [4] appears, read: Test System: AMES SALMONELLA TYPHIMURIUM, Strain/Indicator: TA100, Metabolic Activation: NONE, Method: PREINCUBATION
[5] abbreviates: Test System: AMES SALMONELLA TYPHIMURIUM, Strain/Indicator: TA1535, Metabolic Activation: NONE, Method: PREINCUBATION

The structures appear in SMILES notation. Active and inactive are the calls of the source. The rule behind the calls is not given here.

With `Oc1cc(Cl)c(Cl)cc1Cl`, the mutagenic call by setting is: (Test System: AMES SALMONELLA TYPHIMURIUM, Strain/Indicator: TA97, Metabolic Activation: NONE, Method: STANDARD PLATE) “active; positive”; (Test System: AMES SALMONELLA TYPHIMURIUM, Strain/Indicator: TA97, Metabolic Activation: RAT, LIVER, S-9, AROCLOR 1254, Method: STANDARD PLATE) “active; positive”; (Test System: AMES SALMONELLA TYPHIMURIUM, Strain/Indicator: TA98, Metabolic Activation: NONE) “inactive; negative”; under setting [1], “active; positive”; (Test System: AMES SALMONELLA TYPHIMURIUM, Strain/Indicator: TA98, Metabolic Activation: RAT, LIVER, S-9, AROCLOR 1254) “inactive; negative”; (Test System: AMES SALMONELLA TYPHIMURIUM, Strain/Indicator: TA98, Metabolic Activation: RAT, LIVER, S-9, AROCLOR 1254, Method: STANDARD PLATE) “active; positive”. The mutagenic call is “inactive; negative” (Test System: AMES SALMONELLA TYPHIMURIUM, Strain/Indicator: TA100, Metabolic Activation: NONE); “active; positive” under setting [2]; “inactive; negative” (Test System: AMES SALMONELLA TYPHIMURIUM, Strain/Indicator: TA100, Metabolic Activation: RAT, LIVER, S-9, AROCLOR 1254); “inactive; negative” (Test System: AMES SALMONELLA TYPHIMURIUM, Strain/Indicator: TA100, Metabolic Activation: RAT, LIVER, S-9, AROCLOR 1254, Method: STANDARD PLATE); “inactive; negative” (Test System: AMES SALMONELLA TYPHIMURIUM, Strain/Indicator: TA102, Metabolic Activation: NONE); “inactive; negative” (Test System: AMES SALMONELLA TYPHIMURIUM, Strain/Indicator: TA102, Metabolic Activation: RAT, LIVER, S-9, AROCLOR 1254). Besides, the mutagenic call (Test System: AMES SALMONELLA TYPHIMURIUM, Strain/Indicator: TA104, Metabolic Activation: NONE) is “inactive; negative”; the mutagenic call (Test System: AMES SALMONELLA TYPHIMURIUM, Strain/Indicator: TA104, Metabolic Activation: NONE, Method: STANDARD PLATE) is “inactive; negative”; the mutagenic call (Test System: AMES SALMONELLA TYPHIMURIUM, Strain/Indicator: TA104, Metabolic Activation: RAT, LIVER, S-9, AROCLOR 1254) was “inactive; negative”; the mutagenic call (Test System: AMES SALMONELLA TYPHIMURIUM, Strain/Indicator: TA104, Metabolic Activation: RAT, LIVER, S-9, AROCLOR 1254, Method: STANDARD PLATE) is “inactive; negative”; the mutagenic call (Test System: CHINESE HAMSTER V-79, Strain/Indicator: V-79/6-THIOGUANINE, Metabolic Activation: NONE, Method: STANDARD PLATE) was “inactive; negative”.
Turning to `Nc1cc([N+](=O)[O-])cc(S(=O)(=O)O)c1O`, the mutagenic call is “inactive; negative” (Test System: AMES SALMONELLA TYPHIMURIUM, Strain/Indicator: TA97, Metabolic Activation: HAMSTER, LIVER, S-9, AROCLOR 1254 (10%), Method: PREINCUBATION); “inactive; negative” (Test System: AMES SALMONELLA TYPHIMURIUM, Strain/Indicator: TA97, Metabolic Activation: HAMSTER, LIVER, S-9, AROCLOR 1254 (30%), Method: PREINCUBATION); “inactive; negative” (Test System: AMES SALMONELLA TYPHIMURIUM, Strain/Indicator: TA97, Metabolic Activation: NONE, Method: PREINCUBATION); “inactive; negative” (Test System: AMES SALMONELLA TYPHIMURIUM, Strain/Indicator: TA97, Metabolic Activation: RAT, LIVER, S-9, AROCLOR 1254 (10 OR 30%), Method: PREINCUBATION); “inactive; negative” (Test System: AMES SALMONELLA TYPHIMURIUM, Strain/Indicator: TA98, Metabolic Activation: HAMSTER, LIVER, S-9, AROCLOR 1254 (10 OR 30%), Method: PREINCUBATION); “inactive; negative” under setting [3]. Moreover, the mutagenic call was “inactive; negative” (Test System: AMES SALMONELLA TYPHIMURIUM, Strain/Indicator: TA98, Metabolic Activation: RAT, LIVER, S-9, AROCLOR 1254 (10 OR 30%), Method: PREINCUBATION); “inactive; negative” (Test System: AMES SALMONELLA TYPHIMURIUM, Strain/Indicator: TA100, Metabolic Activation: HAMSTER, LIVER, S-9, AROCLOR 1254 (10 OR 30%), Method: PREINCUBATION); “inactive; negative” under setting [4]; “inactive; negative” (Test System: AMES SALMONELLA TYPHIMURIUM, Strain/Indicator: TA100, Metabolic Activation: RAT, LIVER, S-9, AROCLOR 1254 (10 OR 30%), Method: PREINCUBATION); “inactive; negative” (Test System: AMES SALMONELLA TYPHIMURIUM, Strain/Indicator: TA1535, Metabolic Activation: HAMSTER, LIVER, S-9, AROCLOR 1254 (10 OR 30%), Method: PREINCUBATION); “inactive; negative” under setting [5]. In addition, under “Test System: AMES SALMONELLA TYPHIMURIUM, Strain/Indicator: TA1535, Metabolic Activation: RAT, LIVER, S-9, AROCLOR 1254 (10%), Method: PREINCUBATION”, the mutagenic call was “inactive; negative”.
For the molecule `O=C1OCC(C(Br)Br)=C1Cl`, the mutagenic call under setting [2] is “active; positive”.
As to `CC(=O)c1cc(NC(=O)Nc2ccc(OCC(O)CNC(C)(C)C)c(C(C)=O)c2)ccc1OCC(O)CNC(C)(C)C` (stereo not given), the mutagenic call under setting [3] was “inactive; negative”; the mutagenic call (Test System: AMES SALMONELLA TYPHIMURIUM, Strain/Indicator: TA98, Metabolic Activation: RAT, LIVER, S-9, PHENOBARBITAL AND 5,6-BENZOFLAVONE (10 OR 50 µL/PLATE), Method: PREINCUBATION) is “inactive; negative”; the mutagenic call under setting [4] is “inactive; negative”; the mutagenic call (Test System: AMES SALMONELLA TYPHIMURIUM, Strain/Indicator: TA100, Metabolic Activation: RAT, LIVER, S-9, PHENOBARBITAL AND 5,6-BENZOFLAVONE (10 OR 50 µL/PLATE), Method: PREINCUBATION) is “inactive; negative”; the mutagenic call under setting [5] was “inactive; negative”; the mutagenic call (Test System: AMES SALMONELLA TYPHIMURIUM, Strain/Indicator: TA1537, Metabolic Activation: NONE, Method: PREINCUBATION) was “inactive; negative”. Moreover, the mutagenic call (Test System: AMES SALMONELLA TYPHIMURIUM, Strain/Indicator: TA1537, Metabolic Activation: RAT, LIVER, S-9, PHENOBARBITAL AND 5,6-BENZOFLAVONE (10 OR 50 µL/PLATE), Method: PREINCUBATION) was “inactive; negative”; the mutagenic call (Test System: E. COLI, Strain/Indicator: WP2 UVRA, Metabolic Activation: NONE, Method: PREINCUBATION) is “inactive; negative”; the mutagenic call (Test System: E. COLI, Strain/Indicator: WP2 UVRA, Metabolic Activation: RAT, LIVER, S-9, PHENOBARBITAL AND 5,6-BENZOFLAVONE (10 OR 50 µL/PLATE), Method: PREINCUBATION) was “inactive; negative”.
Consider `Cc1cccc(C)c1N=Nc1c(O)ccc2ccccc12`, for which the mutagenic call runs as follows: under setting [1], “inactive; negative”; (Test System: AMES SALMONELLA TYPHIMURIUM, Strain/Indicator: TA98, Metabolic Activation: RAT, LIVER, S-9, Method: STANDARD PLATE) “inactive; negative”; under setting [2], “inactive; negative”; (Test System: AMES SALMONELLA TYPHIMURIUM, Strain/Indicator: TA100, Metabolic Activation: RAT, LIVER, S-9, Method: STANDARD PLATE) “inactive; negative”.
On to `O.O.O=N[O-].O=N[O-].O=N[O-].O=N[O-].[K+].[K+].[Pt]`, for which the mutagenic call is, setting by setting: under setting [3], “inactive; negative”; (Test System: AMES SALMONELLA TYPHIMURIUM, Strain/Indicator: TA98, Metabolic Activation: RAT, LIVER, S-9, AROCLOR 1254, Method: PREINCUBATION) “inactive; negative”; under setting [4], “inactive; negative”; (Test System: AMES SALMONELLA TYPHIMURIUM, Strain/Indicator: TA100, Metabolic Activation: RAT, LIVER, S-9, AROCLOR 1254, Method: PREINCUBATION) “inactive; negative”.
Turning to `Cc1c(N)nc([C@H](CC(N)=O)NC[C@H](N)C(N)=O)nc1C(=O)N[C@H](C(=O)N[C@H](C)[C@@H](O)[C@H](C)C(=O)N[C@H](C(=O)NCCc1nc(-c2nc(C(=O)NCCCN[C@@H](C)c3ccccc3)cs2)cs1)[C@@H](C)O)[C@@H](O[C@@H]1O[C@@H](CO)[C@@H](O)[C@H](O)[C@@H]1O[C@H]1O[C@H](CO)[C@@H](O)[C@H](OC(N)=O)[C@@H]1O)c1cnc[nH]1`, the mutagenic call (Test System: AMES SALMONELLA TYPHIMURIUM, Strain/Indicator: TA102, Metabolic Activation: NONE, Method: STANDARD PLATE) was “active; positive” and the mutagenic call (Test System: AMES SALMONELLA TYPHIMURIUM, Strain/Indicator: TA1537, Metabolic Activation: NONE, Method: STANDARD PLATE) was “inactive; negative”.

Values taken from PubChem BioAssay AID1259407 (Chemical Carcinogenesis Research Information System (CCRIS), 2018).
